Measurements reported in patent EP0356223A2, “HIV protease inhibitors useful for the treatment of aids” (MERCK & CO. INC., priority 1988, dated 1990).

target: T1, HIV protease (Human immunodeficiency virus type 1 group M subtype B, UniProt P04585); test: Assay for Inhibition of Microbial Expressed Viral Protease; format: biochemical; conditions: protease expressed in Eschericia coli; peptide substrate Val-Ser-Gln-Asn-(betanapthyl)Ala-Pro-lie-Val 0.5 mg/ml; 50 mM Na acetate, pH 5.5, 30° C, 1 hr; HPLC readout
T1 construct: the protease expressed in Eschericia coli; made in house; host or cells: Escherichia coli
Description: Assay for Inhibition of Microbial Expressed Viral Protease
Inhibition studies of the reaction of the protease expressed in Eschericia coli with a peptide substrate [Val-Ser-Gln-Asn-(betanapthyl)Ala-Pro-lie-Val, 0.5 mg/ml at the time the reaction is initiated] were in 50 mM Na acetate, pH 5.5, at 30° C for 1 hr. Various concentrations of inhibitor in 1.0 ul DMSO were added to 25 ul of the peptide solution in water. The reaction is initiated by the addition of 15 ul of 0.33 nM protease (0.11 ng) in a solution of 0.133 M Na acetate pH 5.5 and 0.267% bovine serum albumin. The reaction was quenched with 160 ul of 5% phosphoric acid. Products of the reaction were separated by HPLC (VYDAC wide pore 5 cm C-18 reverse phase, acetonitrile gradient, 0.1% phosphoric acid). The extent of inhibition of the reaction was determined from the peak heights of the products.

| Structure (SMILES) | IC50 |
| --- | --- |
| CC[C@H](C)[C@H](NC(=O)[C@H](Cc1ccccc1)C[C@H](O)[C@H](Cc1ccccc1)NC(=O)CCC(=O)O)C(=O)NCc1ccccc1 [Compound F, N-benzyl-N'-(succinoyl)-5(S)-amino-4(S)-hydroxy-6-phenyl-2(R)-(phenylmethyl)hexanoyl isoleucyl amide] | 0.5 to 10 nM |
| O=C1CC[C@@H](C(=O)N[C@@H](Cc2ccccc2)[C@@H](O)C[C@@H](Cc2ccccc2)C(=O)N[C@H]2c3ccccc3C[C@H]2O)O1 [Compound J, N-(2(R)-hydroxy-1 (S)-indanyl)-N'-(5-oxo-2(S)-tetrahydrofuranylcarbonyl)-5(S)-amino-4(S)-hydroxy-6-phenyl-2(R)-(phenylmethyl)hexanamide] | 0.5 to 10 nM |
| O=C(O)CCC(=O)N[C@@H](Cc1ccccc1)[C@@H](O)C[C@@H](Cc1ccccc1)C(=O)N[C@H]1c2ccccc2C[C@H]1O [Compound G, N-(2(R)-hydroxy-1 (S)-indanyl)-N'-(succinoyl)-5(S)-amino-4(S)-hydroxy-6-phenyl-2(R)-(phenylmethyl)-hexanamide] | 0.5 to 10 nM |
| CS(=O)(=O)N[C@@H](Cc1ccccc1)[C@@H](O)C[C@@H](Cc1ccccc1)C(=O)N[C@H]1c2ccccc2C[C@H]1O [Compound H, N-(2(R)-hydroxy-1 (S)-indanyl)-N'-(methanesulfonyl)-5(S)-amino-4(S)-hydroxy-6-phenyl-2(R)-(phenylmethyl)-hexanamide] | 0.5 to 10 nM |
